Laboratory results reported in the supplement of paper PMC11208160.

test: recombinant UMI read abundance after kanamycin selection (control-corrected) (log10(CPM+1)); higher = more efficient recombination; extreme values may be limits of the assay; sequences stand for … in AGTGCAGAGAAAATCGGCCAGTTTTCTCTGCCTGCAGTCCGCATGCCGTGGGACCCCTTGGGTTCTAACCTGTTGCCTAGATTTATGCAGCGGACTGCCTTTCTCCCAAAGTGATAAACCGG…AGGTTGGTTTCACT; site = the 11-nt donor
Protocol: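 Pooled E. coli donor-specificity screen for the IS621 bridge recombinase. Each library member carries a reprogrammed 11-nt donor and a full-length LE bridge RNA expressed in cis from the natural promoter, with a paired donor-binding loop (8-nt LDG + 4-nt RDG) and a target-binding loop fixed to T5. It is co-electroporated with a T5 target plasmid; recombinase is induced with 0.07 mM IPTG and recombinants are selected on kanamycin. UMIs are counted as CPM, averaged over two biological replicates and corrected by the unselected control. Molecule = full bridge RNA written as DNA, built from the T5 scaffold: LDG = donor specificity nt 1-8, RDG = reverse complement of nt 8-11.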
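Also: IS621 bridge recombinase in Escherichia coli cells against a fixed T5 target plasmid.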

“AACTAGACATGGACCGGTTTTCCCGGTAATCCGTATTTGGG (site ATCTAGACTCC)” and “TCCAGTTCATGGACCGGTTTTCCCGGTAATCCGTATTTGCC (site TCCACTTCTGG)” are within 0.2 log units of each other in “recombinant UMI read abundance (log10)” value: 0.0377 for the first, 0 for the second.

“CCCTACCCATGGACCGGTTTTCCCGGTAATCCGTATTTGCC (site CCCTATCCTGG)” and “TGGCAGGCATGGACCGGTTTTCCCGGTAATCCGTATTTGGC (site TGGCGGGCTGC)” are the same in “recombinant UMI read abundance (log10)” value: 0 for the first, 0 for the second.

Going from “GGCAACCCATGGACCGGTTTTCCCGGTAATCCGTATTTGTT (site GGCTACCCTAA)” to “ACAGTATCATGGACCGGTTTTCCCGGTAATCCGTATTTGCA (site ACTGTATCTTG)”, the “recombinant UMI read abundance (log10)” value rises from 0.0252 to 2.31.

“CCCCGTCCATGGACCGGTTTTCCCGGTAATCCGTATTTGCA (site CCCTGTCCTTG)” and “GGCAATCCATGGACCGGTTTTCCCGGTAATCCGTATTTGAA (site GGCAAACCTTT)” are within 0.2 log units of each other in “recombinant UMI read abundance (log10)” value: 0.00689 for the first, 0 for the second.

“ACACGAACATGGACCGGTTTTCCCGGTAATCCGTATTTGTC (site ACATGAACTGA)” and “CGATCGACATGGACCGGTTTTCCCGGTAATCCGTATTTGTA (site CGATCGACTCA)” are within 0.2 log units of each other in “recombinant UMI read abundance (log10)” value: 0 for the first, 0.0107 for the second.

“CTATTGTCATGGACCGGTTTTCCCGGTAATCCGTATTTGAC (site CTATTGTCTGT)” and “CCCTGTCCATGGACCGGTTTTCCCGGTAATCCGTATTTGCA (site CCCTGTCCTTG)” are within 0.2 log units of each other in “recombinant UMI read abundance (log10)” value: 0 for the first, 0.00678 for the second.

Going from “TAGTACTCATGGACCGGTTTTCCCGGTAATCCGTATTTGCT (site TAGTACTCTAG)” to “CAGAAAACATGGACCGGTTTTCCCGGTAATCCGTATTTGGG (site CAGAAAACTCC)”, the “recombinant UMI read abundance (log10)” value falls from 2.94 to 0.991.

“TATTTGGCATGGACCGGTTTTCCCGGTAATCCGTATTTGTA (site TATTTGGCTGA)” and “TCTACCGCATGGACCGGTTTTCCCGGTAATCCGTATTTGCG (site TCCACCGCTCG)” are within 0.2 log units of each other in “recombinant UMI read abundance (log10)” value: 0 for the first, 0.0035 for the second.

“ACCTAGCCATGGACCGGTTTTCCCGGTAATCCGTATTTGCC (site TCCTAGCCTGG)” and “CTTCTCACATGGACCGGTTTTCCCGGTAATCCGTATTTGTA (site CTTCTCGCTTA)” are within 0.2 log units of each other in “recombinant UMI read abundance (log10)” value: 0 for the first, 0.0103 for the second.

“TGGCCGGCATGGACCGGTTTTCCCGGTAATCCGTATTTGCC (site TGGCCGGCTGC)” and “AGCCTTTCATGGACCGGTTTTCCCGGTAATCCGTATTTGAC (site AGCTTTTCTGT)” are the same in “recombinant UMI read abundance (log10)” value: 0 for the first, 0 for the second.

Going from “ACAGTATCATGGACCGGTTTTCCCGGTAATCCGTATTTGCA (site CGAGTATCTTG)” to “TCCACCGCATGGACCGGTTTTCCCGGTAATCCGTATTTGTG (site TCCACCGCTCT)”, the “recombinant UMI read abundance (log10)” value falls from 1.36 to 0.0682.

“AGCTCGGCATGGACCGGTTTTCCCGGTAATCCGTATTTGGG (site AGCTCAGCTCC)” and “TTTACACCATGGACCGGTTTTCCCGGTAATCCGTATTTGAC (site TTTACACCTGT)” are within 0.2 log units of each other in “recombinant UMI read abundance (log10)” value: 0.0161 for the first, 0 for the second.

First: AGCCTTTCATGGACCGGTTTTCCCGGTAATCCGTATTTGAC (site AGCCTTACTGT)
Second: GTAGTAGCATGGACCGGTTTTCCCGGTAATCCGTATTTGCG (site GTAGTAGCTCG)
The “recombinant UMI read abundance (log10)” value of the first is lower: 0 for the first, 2.62 for the second.

First: AGGACTGCATGGACCGGTTTTCCCGGTAATCCGTATTTGAC (site AGGACTACTGT)
Second: AAAAAGGCATGGACCGGTTTTCCCGGTAATCCGTATTTGCT (site AGAAAGGCTAG)
The “recombinant UMI read abundance (log10)” value of the first is higher: 2.15 for the first, 0.722 for the second.

Going from “ATAAGGACATGGACCGGTTTTCCCGGTAATCCGTATTTGAC (site ATAAGGGCTGT)” to “AGCCTTTCATGGACCGGTTTTCCCGGTAATCCGTATTTGAC (site AGCCTATCTGT)”, the “recombinant UMI read abundance (log10)” value falls from 2.31 to 1.73.

First: GTTAGTACATGGACCGGTTTTCCCGGTAATCCGTATTTGGC (site GTTAGTACTGC)
Second: CCGTTTACATGGACCGGTTTTCCCGGTAATCCGTATTTGCT (site CCGATTACTAG)
The “recombinant UMI read abundance (log10)” value of the first is higher: 0.861 for the first, 0 for the second.

Compared with “ACACGAACATGGACCGGTTTTCCCGGTAATCCGTATTTGTC (site ACACGAACTGG)”, “TAGCCTTCATGGACCGGTTTTCCCGGTAATCCGTATTTGGG (site TAGCCTTCTAC)” is lower in “recombinant UMI read abundance (log10)” value: 1.74 for the first, 0 for the second.

“AGCCTAGCATGGACCGGTTTTCCCGGTAATCCGTATTTGTT (site AGCCTACCTAA)” and “CCTAAAACATGGACCGGTTTTCCCGGTAATCCGTATTTGGC (site CCTAATACTGC)” are within 0.2 log units of each other in “recombinant UMI read abundance (log10)” value: 0.0078 for the first, 0 for the second.

Compared with “ATCTATACATGGACCGGTTTTCCCGGTAATCCGTATTTGAG (site ATCTATACTTT)”, “GCATAGACATGGACCGGTTTTCCCGGTAATCCGTATTTGCC (site GCATAGACTGG)” is higher in “recombinant UMI read abundance (log10)” value: 0.0268 for the first, 1.74 for the second.

Compared with “CGGAATGCATGGACCGGTTTTCCCGGTAATCCGTATTTGTT (site CGGAATACTAA)”, “CACGACCCATGGACCGGTTTTCCCGGTAATCCGTATTTGTT (site CACGTCCCTAA)” is lower in “recombinant UMI read abundance (log10)” value: 2 for the first, 0.00755 for the second.

“GATTGGACATGGACCGGTTTTCCCGGTAATCCGTATTTGAG (site GATTGGACTTT)” and “CTGGAACCATGGACCGGTTTTCCCGGTAATCCGTATTTGAT (site CGGGAACCTAT)” are within 0.2 log units of each other in “recombinant UMI read abundance (log10)” value: 0.0197 for the first, 0 for the second.

First: AATTGGACATGGACCGGTTTTCCCGGTAATCCGTATTTGAC (site GATTGGACTGT)
Second: TACTAGTCATGGACCGGTTTTCCCGGTAATCCGTATTTGGA (site TACTAGTCTTC)
The “recombinant UMI read abundance (log10)” value of the first is lower: 0.231 for the first, 1.59 for the second.

“TACAATTCATGGACCGGTTTTCCCGGTAATCCGTATTTGCC (site TCCAATTCTGG)” and “TGCCAGGCATGGACCGGTTTTCCCGGTAATCCGTATTTGGT (site TGCCAGGCTAC)” are within 0.2 log units of each other in “recombinant UMI read abundance (log10)” value: 0 for the first, 0.00408 for the second.

“CCGTTTACATGGACCGGTTTTCCCGGTAATCCGTATTTGCT (site CCGTTGACTAG)” and “CCTAAAACATGGACCGGTTTTCCCGGTAATCCGTATTTGGC (site CCTAACACTGC)” are the same in “recombinant UMI read abundance (log10)” value: 0 for the first, 0 for the second.

First: CTCTAAGCATGGACCGGTTTTCCCGGTAATCCGTATTTGTC (site CTCTAAGCTGA)
Second: ATCTATACATGGACCGGTTTTCCCGGTAATCCGTATTTGGC (site ATCTATACTGT)
The “recombinant UMI read abundance (log10)” value of the first is lower: 1.81 for the first, 2.09 for the second.

Compared with “CGGAATCCATGGACCGGTTTTCCCGGTAATCCGTATTTGTC (site CGGAATCCTTA)”, “CAAATCCCATGGACCGGTTTTCCCGGTAATCCGTATTTGGA (site CAAATCCCTTC)” is higher in “recombinant UMI read abundance (log10)” value: 0 for the first, 0.334 for the second.

Compared with “CAGCCCACATGGACCGGTTTTCCCGGTAATCCGTATTTGAA (site CAGCCCACTTT)”, “ACAGTATCATGGACCGGTTTTCCCGGTAATCCGTATTTGCA (site TCAGTATCTTA)” is lower in “recombinant UMI read abundance (log10)” value: 1.15 for the first, 0 for the second.

Going from “AGGACTACATGGACCGGTTTTCCCGGTAATCCGTATTTGAC (site AGAACTACTGT)” to “AACAAACCATGGACCGGTTTTCCCGGTAATCCGTATTTGGT (site GACAAACCTAC)”, the “recombinant UMI read abundance (log10)” value falls from 2.18 to 0.

First: ACCTCTACATGGACCGGTTTTCCCGGTAATCCGTATTTGTG (site ACCTCTACTCA)
Second: CTTCACACATGGACCGGTTTTCCCGGTAATCCGTATTTGTA (site CTTCACACTTA)
The “recombinant UMI read abundance (log10)” value of the first is lower: 0.0203 for the first, 0.61 for the second.

“CGGATTCCATGGACCGGTTTTCCCGGTAATCCGTATTTGTA (site CGGATTCCTTA)” and “TGTCCTGCATGGACCGGTTTTCCCGGTAATCCGTATTTGTT (site TGTCCTGCTAA)” are within 0.2 log units of each other in “recombinant UMI read abundance (log10)” value: 0 for the first, 0.011 for the second.

First: CGATTTTCATGGACCGGTTTTCCCGGTAATCCGTATTTGCT (site CGATTTTCTAG)
Second: ACATTGTCATGGACCGGTTTTCCCGGTAATCCGTATTTGCA (site ACATTGTCTTG)
The “recombinant UMI read abundance (log10)” value of the first is lower: 1.29 for the first, 2.75 for the second.

Going from “ACCTAGACATGGACCGGTTTTCCCGGTAATCCGTATTTGGG (site ACCTAGACTCA)” to “CTCCCTACATGGACCGGTTTTCCCGGTAATCCGTATTTGAT (site CTCCCTACTAT)”, the “recombinant UMI read abundance (log10)” value rises from 0.0191 to 1.01.

“TGCCGACCATGGACCGGTTTTCCCGGTAATCCGTATTTGTT (site TGCCGACCTAA)” and “AGTACACCATGGACCGGTTTTCCCGGTAATCCGTATTTGAG (site AGTACACCTCT)” are within 0.2 log units of each other in “recombinant UMI read abundance (log10)” value: 0.0263 for the first, 0.0245 for the second.

“CCCGACACATGGACCGGTTTTCCCGGTAATCCGTATTTGTA (site CCCTACACTTA)” and “AGGCTCCCATGGACCGGTTTTCCCGGTAATCCGTATTTGTG (site AGGATCCCTCA)” are within 0.2 log units of each other in “recombinant UMI read abundance (log10)” value: 0.0106 for the first, 0.00474 for the second.

“TCCTACTCATGGACCGGTTTTCCCGGTAATCCGTATTTGCA (site TCGTACTCTTG)” and “TCGAATACATGGACCGGTTTTCCCGGTAATCCGTATTTGCA (site TTGAATACTTG)” are the same in “recombinant UMI read abundance (log10)” value: 0 for the first, 0 for the second.

First: CGTTGATCATGGACCGGTTTTCCCGGTAATCCGTATTTGCT (site CGTTGATCTAG)
Second: CAACTCCCATGGACCGGTTTTCCCGGTAATCCGTATTTGCT (site CAACTCCCTAG)
The “recombinant UMI read abundance (log10)” value of the first is higher: 2.78 for the first, 1.86 for the second.
